Measurements from patent EP0398231B1, “Nucleoside analogs” (INSTITUTE OF ORGANIC CHEMISTRY AND BIOCHEMISTRY OF THE …, priority 1989, dated 1990).
Converted amounts (≈) assume the structure as drawn. Counter-ions that a name gives are not always drawn. Like-named read-outs stand apart in the source and are kept apart here.

Tests used:
MuLV = test: UV-XC plaque assay in SC-1 cells, MuLV; assay type: cell-based, murine leukemia virus; details: Virus MuLV, Cell-line SC-1; read-out: ID50 (the source's name)
Description: (§1) The compounds were evaluated for antiviral activity against murine leukemia virus (MuLV) strains using the UV-XC plaque assay (Rowe, et al., Virology, 42:1136, 1970).
(§2) The MuLV strains were grown in feral mouse cells (SC-1) and used for antiviral tests using the UV-XC plaque assay. Briefly, SC-1 cells are grown as monolayers in 4-well tissue culture plates and inoculated with approximately 50-100 plaque forming units of MuLV in 0.5 ml of 5% EMEM containing 20 µg/ml DEAE/Dextran. After 1 hour adsorbtion, the inoculum is removed and 5 ml of 5% EMEM containing three-fold dilutions of the appropriate drug are added. Five days later, the cultures are UV-irradiated with an ultraviolet lamp and rat XC sarcoma cells are added to the cultures. Three-four days after UV-irradiation, the cell cultures are stained with Giemsa stain and the plaques are enumerated. Antiviral activity is expressed in terms of the reduction in the mean number of UX-XC plaques counted in the drug treated, virus-infected cultures compared with mean number of plaques counted in untreated, virus-infected control cultures.
(§3) This compound was evaluated for anti-retroviral activity by the methods described in Examples 43 and 44. AZT controls were run simultaneously to confirm the validity of the test.

SC-1 = assay type: cell-based; details: mouse, sc-1 cells
HIV = HIV assay in MT-4 cells; assay type: cell-based; details: Virus HIV, Cell-line MT-4; read-out: ID50 (the source's name)
Description: as §3

R-MuLV = test: UV-XC plaque assay in SC-1 cells, R-MuLV; assay type: cell-based, murine leukemia virus
Description: as §1, §2

HIV (LAV strain) = test: HIV in vitro assay in CEM cells, p-24 gag protein ELISA; assay type: cell-based
Description: The HIV in vitro assay described as follows was used: The anti-HIV/LAV activity is measured in cultures of CEM-F cells.

Herpes simplex virus - 2 = test: Survival of mice inoculated with Herpes simplex virus-2, 21 day protocol; assay type: in vivo
Description: A preferred example of one of these compounds, known as (S)-HPMPA (Formula 4') was disclosed by DeClercq, et al., in Nature, 1986, 323, pp. 464-467 and earlier by Holy, et al., Nucleic Acids Research, Symposium Series No. 14, 1984, pp. 277-278. Phosphonate compounds which are HPMPA analogs are described in South African Patent 1987/8607. […] In a 21 day protocol 30% of a group of animals treated i.p. with 50 mg/kg/day of (S)-HPMPA survived. [drawing 4]

[1] = tested on: Herpes simplex virus-1 (HL-34 strain); test: HSV-1 systemic infection in mice, survival at 21 days; assay type: in vivo; details: i.p.; for Survival: BID for 5 consecutive days, from 3 hours post-infection, 21 days
Description: Groups of ten mice were inoculated intraperitoneally with from 200 to 600 PFU/0.2ml of Herpes simplex virus-1 (HL-34 strain). Different doses of test compound were administered to separate groups of animals on a BID basis for five consecutive days commencing three hours after inoculation. Treatment was by an intraperitoneal route. The experiment was teminated 21 days post inoculation and the number of survivals in each group was counted. The mean survival time (MST, days) was calculated.

HSV-2 = test: Plaque reduction assay in vero cells, HSV-2; assay type: cell-based, Herpes simplex virus; details: Human alphaherpesvirus 2, 48 hour incubation, read-out: ID50 HVS-2
Description: (§4) Herpes simplex virus (HSV) strains were grown and titered at 37°C in vero cells (African Green Monkey Kidney cells) and used for virus work before the tenth passage.
(§5) Cells were grown and maintained in Earle's Minimum Essential Medium (EMEM), Gibco Laboratories, supplemented with 0.75% sodium bicarbonate, 2mM 1-glutamine, Pen-strep. and 5-10% fetal calf serum.
(§6) The titer of HSV strains is determined by a plaque titration method (Roizman and Roane, Virology, 115:75-79, 1961). Tissue culture 24-well petri dishes are seeded with cells and used for assays when approximately 75% monolayer. Volumes (0.1ml) of logarithmic dilutions of the virus strain are inoculated onto each of triplicate wells, and absorbed for one hour with intermittent shaking. […] The number of plaques is counted, the triplicate is averaged, and the number of plaque-forming units per ml is calculated.
(§7) The compounds are tested for activity against the herpes simplex stains using a stock solution of each compound freshly prepared. […] The antiviral efficacy of each compound is determined using the plaque reduction assay described above. […] After a 48-hour incubation period, at 37°C in a 5% CO2 atmosphere, the overlay medium is removed, the cells are stained as described above, and plaques are counted. The counts of triplicate wells are averaged, and the number of plaques in the presence of each drug dilution are calculated. […]

HSV-1 = test: Plaque reduction assay in vero cells, HSV-1; assay type: cell-based, Herpes simplex virus; details: Human alphaherpesvirus 1, 48 hour incubation, read-out: ID50 HVS-1
Description: as §4, §5, §6, §7

[2] = Murine leukemia virus, SC1, UV-XC plaque assay, SC-1 cells, read-out: ID50 R-MuLV

## 9-[2,3-Dideoxy-2,3-didehydro-4-β-phosphonomethoxy-β-D-erythrofuranosyl]adenine ammonium salt [Example 50]
MuLV
  IC50: < 100 nM
SC-1
  CC50: > 100000 nM
HIV
  IC50: 1500 nM
R-MuLV; Virus MuLV-R, Cell-line SC-1, read-out: ID50 (the source's name)
  IC50: 10 nM
HIV (LAV strain); Virus HIV, Cell-line CEM, read-out: ID50 (the source's name)
  IC50: 45000 nM

## Nc1ncnc2c1ncn2C[C@@H](CO)OCP(=O)(O)O [(S)-HPMPA]
Herpes simplex virus - 2; in applicant's hands
  activity in mice inoculated with Herpes simplex virus - 2 (in words): only slightly active
Herpes simplex virus - 2; mice inoculated with Herpes simplex virus - 2, i.p. 50 mg/kg/day, 21 day protocol
  survived: 30%

## Nc1nc2c(ncn2COCCO)c(=O)[nH]1 [ACV, Acyclovir, reference compound]
[1]; Dose 100 mg/kg/d
  Survival: 7/10
[1]; Dose 200 mg/kg/d
  Survival: 6/7
HSV-2
  IC50: 0.5 µg/mL (≈ 2.22 µM)
HSV-1
  IC50: 0.5 µg/mL (≈ 2.22 µM)

## Cc1cn([C@H]2C[C@H](N=[N+]=[N-])[C@@H](CO)O2)c(=O)[nH]c1=O [AZT, reference compound]
R-MuLV; [2]
  IC50: 0.05 µg/mL
HIV (LAV strain); Human immunodeficiency virus 1, CCRF-CEM, 192 h, read-out: ID50 HIV
  IC50: 0.1 µg/mL

## Nc1nc2c(ncn2COCOCP(=O)(O)O)c(=O)[nH]1 [Compound 8, 9-[3-(Phosphonomethoxy)methoxymethyl]guanine disodium salt]
[1]; Dose 10 mg/kg/d
  Survival: 3/10
[1]; Dose 100 mg/kg/d
  Survival: 9/10
[1]; Dose 300 mg/kg/d
  Survival: 10/10
[1]; HSV-1 systemic infection in mice
  activity compared with ACV in vivo (in words): equally as active as ACV
HSV-2
  IC50: 11 µg/mL
HSV-1
  IC50: 2.6 µg/mL

## Cc1cn(C2C=CC(OCP(=O)(O)O)O2)c(=O)[nH]c1=O [Compound 25, 1-[2,3-Dideoxy-2,3-didehydro-4-phosphonomethoxy-beta-D-erythrofuranosyl]thymine disodium salt]
R-MuLV; [2]
  IC50: 0.3 µg/mL
HIV (LAV strain); Human immunodeficiency virus 1, CCRF-CEM, 192 h, CEM-F cells, 8 days, p-24 gag protein ELISA, read-out: ID50 HIV
  IC50: 1.8 µg/mL
